Test results published in PMC7305796 (Antiviral research, 2019).

Legend:
[1] = tested on: VEEV TC-83; assay: microbe, parasite or virus in culture; type: cell-based; conditions: Venezuelan equine encephalitis virus, Vero 76, 48 h, read-out: VEEV EC50
[2] = tested on: VEEV TC-83; type: cell-based, Venezuelan equine encephalitis virus
[3] = tested on: VEEV Trinidad Donkey (TrD); set-up: species or system BALB/c mice; conditions: mouse, in vivo
[4] = mouse, microsomes
[5] = mouse
[6] = mouse; remark: listed apart in the source
[7] = tested on: VEEV TC-83; conditions: mouse, in vivo; cited from earlier work

CN1CCN(C)/C(=N/c2ccc([N+](=O)[O-])cc2C(=O)Nc2ccccc2)C1 [ML336, (E)-2-((1,4-dimethylpiperazin-2-ylidene)amino)-5-nitro-N-phenylbenzamide]
EC50 [1]: 32 ± 5 nM
VEEV log titer reduction [2]: 7.0 ± 0.4 log
protection of mice (survival) [3]: 100%
Microsomal stability, % parent after 1h [4]: 42.9%
Plasma stability, % parent after 3h [5]: 65.4%
plasma protein binding, % bound at 1 μM [6]: 85.0 / 77.0%
plasma protein binding, % bound at 10 μM [6]: 85.0 / 77.0%
survival rate [7]: 71%
